Earlier results as cited in patent US4722394A, “Determining residual oil saturation by radioactively analyzing injected CO2 and base-generating tracer-providing solution” (Shell Oil Company, priority 1986, dated 1988).

O=C=O [CO2, carbon dioxide]
distribution coefficient, Ki (ratio of concentration of tracer in the oil phase to that in the water phase): about 2
